Read-outs that look alike come from different tables or passages of the source. Where a SMILES comes first, the peptide text is derived from it. Bridges are numbered along the chain shown (N, C = ends).
Key:
[1] = target: T1, Human matriptase-1 (Homo sapiens, UniProt Q9Y5Y6); experiment: Matriptase-1 inhibition assay (Ki / Ki app); assay type: biochemical
T1 construct: made in house
T1 sequence (Q9Y5Y6 615-855 limits assumed): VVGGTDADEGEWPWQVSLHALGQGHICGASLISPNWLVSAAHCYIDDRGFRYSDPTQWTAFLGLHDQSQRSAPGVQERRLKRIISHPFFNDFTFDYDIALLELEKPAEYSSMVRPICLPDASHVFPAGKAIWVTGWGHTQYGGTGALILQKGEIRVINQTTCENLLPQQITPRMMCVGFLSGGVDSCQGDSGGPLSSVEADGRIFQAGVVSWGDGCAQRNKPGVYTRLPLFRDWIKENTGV
Method: Human matriptase-1 was produced recombinantly, autocatalytically activated and purified as previously reported [35], [49], [51], [60].
Measurements were carried out in triplicate using a Tecan Genios ELISA reader.
(§1) Apparent inhibition constants (Ki ^app) were calculated by fitting the Morrison equation (1) for tight-binding inhibitors to the relative reaction velocity using non-linear regression (Marquardt-Levenberg algorithm, Sigma Plot 11) [63].
(§2) Substrate-independent inhibition constants Ki were calculated from Ki ^app and Km of the enzyme according to (2).

[2] = target: T2, Bovine pancreatic trypsin (Bos taurus, UniProt P00760); experiment: Trypsin inhibition assay (substrate-independent Ki); assay type: biochemical; conditions: substrate-independent Ki from Ki app (Morrison equation) and Km; 250 µM substrate; preincubation 30 min RT; read over 30 min; triplicate
T2 construct: purchased Sigma-Aldrich
T2 sequence (P00760 24-246): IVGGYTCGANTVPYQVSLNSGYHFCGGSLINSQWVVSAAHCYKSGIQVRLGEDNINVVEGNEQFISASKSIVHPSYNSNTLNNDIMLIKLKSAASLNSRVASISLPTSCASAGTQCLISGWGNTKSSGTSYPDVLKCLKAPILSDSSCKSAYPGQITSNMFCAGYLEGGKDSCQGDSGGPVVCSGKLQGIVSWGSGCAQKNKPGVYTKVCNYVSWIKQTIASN
Method: Bovine pancreatic trypsin, thrombin and uPA were purchased from Sigma-Aldrich and Hepsin from R&D Systems.
Measurements were carried out in triplicate using a Tecan Genios ELISA reader. The normalized residual proteolytic activity (v/v0) of proteases was determined using substrates Boc-QAR-pNA (250 µM, (pNA stands for para-nitro aniline), Boc-QAR-AMC (250 µM, AMC stands for amino-methyl coumarin) or Spectrozym tPA (250 µM, American Diagnostica, CH3SO2-D-CHT-Gly-Arg-pNA AcOH). Product formation was monitored after preincubation (30 min, RT) with inhibitor at different concentrations over 30 min by measuring the absorbance at 405 nm for pNA substrates or the fluorescence emission for AMC substrates (ex. 360 nm, em. 465 nm), respectively. Selectivity data were carried out in duplicates with final protease concentrations of uPA and thrombin of 5 nM. In case of hepsin 50 mM Tris/HCl pH 9.0 was used as assay buffer.
as §1, §2

[3] = tested on: uPA activation by matriptase-1 on the surface of PC-3 cells; experiment: Cell inhibition assay: uPA activation by matriptase-1 on the surface of PC-3 cells; assay type: cell-based, human; conditions: control, concentration of 10 µM
Method: Human prostate cancer cells (PC-3, Merck KGaA) were cultured in DMEM medium with 10% FCS at 37°C and 5% CO2, washed with cation-free PBS and harvested by scraping. 1×10^5 cells were incubated in presence of 250 µM Bz-β-Ala-Gly-Arg-pNA·AcOH (American Diagnostica), which is a specific […] of urokinase, and the inhibitor of interest in defined dilutions overnight. Product formation was monitored at 405 nm before and after incubation in a microplate reader. IC50 was calculated by non-linear regression using SigmaPlot 11.
Urokinase-type plasminogen activator (uPA) causes the degradation of the extracellular matrix and plays a critical role in tumor invasion and metastasis, [73]. It was shown that activation of receptor-bound pro-uPA is affected by matriptase-1, which results in a decreased ability of uPAexpressing tumor cells to invade an extracellular matrix layer upon inhibition of membrane-bound matriptase-1 [72].
For the indirect determination of the IC50 of SOTI Var. 1 and MCoTI Var. 4 on the surface of these cancer cells, the turnover of an uPA substrate was monitored. Pro-uPA is activated through non-inhibited matriptase-1 and substrate turnover was measured and compared to the previously reported small molecule inhibitor S1 of matriptase-1 (Figure 4). In this experimental setting, the MCoTI-based inhibitor Var. […] 4 in this assay.
Figure 4 Inhibition assay of uPA activation by matriptase-1 on the surface of PC-3 cells. Depicted is the logarithmic inhibitor concentration against the absorption at 405 TEXT PRINTED IN THE PICTURE: MCoTI Var.

[4] = substrate-independent Ki from Ki app (Morrison equation) and Km, 250 µM substrate, preincubation 30 min RT, read over 30 min, triplicate, read-out: Ki (Matriptase-1)
[5] = apparent inhibition constant (Morrison equation), MCoTI variants isolated from M. cochinchinensis seeds, oMCoTI-II synthetic, read-out: Kiapp towards matriptase-1

| SMILES | Ki [1, 4] [nM] | Ki [2] [nM] | Ki [1, 5] [nM] | Ki (Trypsin) [2] | inhibition of matriptase-1 or uPA in the PC-3 assay [3] | Ki (Matriptase-1) ([1]; substrate-independent Ki from Ki app (Morrison equation) and Km, 250 µM substrate, preincubation 30 min RT, read over 30 min, triplicate) |
| --- | --- | --- | --- | --- | --- | --- |
| CC[C@H](C)[C@H](N)C(=O)NCC(=O)N[C@H](C(=O)N[C@H]1CSSC[C@@H]2NC(=O)[C@H](C)NC(=O)CNC(=O)[C@@H]3CCCN3C(=O)[C@@H]3CSSC[C@@H](C(=O)NCC(N)=O)NC(=O)[C@H](Cc4ccc(O)cc4)NC(=O)CNC(=O)[C@H](CC(N)=O)NC(=O)CNC(=O)[C@H](CCCNC(=N)N)NC(=O)[C@H](CSSC[C@H](NC(=O)[C@H](C)NC(=O)[C@H](CCCNC(=N)N)NC(=O)[C@H](CC(C)C)NC(=O)[C@H](CC(C)C)NC(=O)[C@H](CCCCN)NC(=O)[C@@H]4CCCN4C1=O)C(=O)N[C@@H](CCCNC(=N)N)C(=O)N[C@@H](CCCNC(=N)N)C(=O)N[C@@H](CC(=O)O)C(=O)N[C@@H](CO)C(=O)N[C@@H](CC(=O)O)C(=O)N3)NC(=O)[C@H]([C@@H](C)CC)NC2=O)C(C)C [MCoTI Var. 1] (H-IGVCPKLLRACRRDSDCPGACICRGNGYCG-NH2; disulfide 4-21, 11-23, 17-29) | 4.4 ± 0.6 | 31.7 ± 4.3 | – | – | – | – |
| CC[C@H](C)[C@@H]1NC(=O)[C@@H]2CSSC[C@H](NC(=O)[C@H](CCCNC(=N)N)NC(=O)[C@H](CCCNC(=N)N)NC(=O)[C@@H](N)CC(N)=O)C(=O)N3CCC[C@H]3C(=O)N[C@@H](CCCCN)C(=O)N[C@@H](C(C)C)C(=O)N[C@@H](CC(C)C)C(=O)N[C@@H](CCCCN)C(=O)N[C@@H](C)C(=O)N[C@H]3CSSC[C@H](NC1=O)C(=O)N[C@@H](CCCNC(=N)N)C(=O)NCC(=O)N[C@@H](CC(N)=O)C(=O)NCC(=O)N[C@@H](Cc1ccc(O)cc1)C(=O)N[C@H](C(=O)NCC(N)=O)CSSC[C@H](NC(=O)[C@H](CC(=O)O)NC(=O)[C@H](CO)NC(=O)[C@H](CC(=O)O)NC(=O)[C@H](CCCNC(=N)N)NC(=O)[C@H](CCCNC(=N)N)NC3=O)C(=O)N1CCC[C@H]1C(=O)NCC(=O)N[C@@H](C)C(=O)N2 [MCoTI Var. 2] | 3.3 ± 0.4 | 19.2 ± 2.8 | – | – | – | – |
| CC[C@H](C)[C@@H]1NC(=O)[C@@H]2CSSC[C@@H]3NC(=O)[C@H](C(C)C)NC(=O)CNC(=O)CNC(=O)C[C@@H](C(=O)O)NC(=O)[C@H](CO)NC(=O)CNC(=O)[C@H](CO)NC(=O)CNC(=O)[C@@H]4CSSC[C@H](NC(=O)[C@H](CC(=O)O)NC(=O)[C@H](CO)NC(=O)[C@H](CC(=O)O)NC(=O)[C@H](CCCNC(=N)N)NC(=O)[C@H](CCCNC(=N)N)NC(=O)[C@H](CSSC[C@H](NC1=O)C(=O)N[C@@H](CCCNC(=N)N)C(=O)NCC(=O)N[C@@H](CC(N)=O)C(=O)NCC(=O)N[C@@H](Cc1ccc(O)cc1)C(=O)N4)NC(=O)[C@H](CCCCN)NC(=O)[C@H](CCCCN)NC(=O)[C@H](CC(C)C)NC(=O)[C@H]([C@@H](C)CC)NC(=O)[C@H](CCCCN)NC(=O)[C@@H]1CCCN1C3=O)C(=O)N1CCC[C@H]1C(=O)NCC(=O)N[C@@H](C)C(=O)N2 [MCoTI-II (ß-asp), reference compound] (GGVCPKILKKCRRDSDCPGACICRGNGYCGSGSD-OH; disulfide 4-21, 11-23, 17-29; lactam N-34) | – | – | 388 ± 32 | – | – | – |
| CC[C@H](C)[C@@H]1NC(=O)[C@H](C)NC(=O)CNC(=O)[C@H](CO)NC(=O)[C@@H]2CCCN2C(=O)[C@H](CO)NC(=O)[C@@H](NC(=O)[C@H](CCCCN)NC(=O)[C@H](CC(=O)O)NC(=O)[C@@H](N)CCC(=O)O)CSSC[C@@H]2NC(=O)[C@@H]3CSSC[C@@H](C(=O)N[C@@H](CCC(N)=O)C(=O)O)NC(=O)[C@H](CCCNC(=N)N)NC(=O)[C@H](Cc4c[nH]c5ccccc45)NC(=O)[C@H](CO)NC(=O)[C@H](CCCNC(=N)N)NC(=O)[C@H](C)NC(=O)[C@H](CCCNC(=N)N)NC(=O)[C@H](CCCNC(=N)N)NC(=O)[C@H](CC(N)=O)NC(=O)[C@H](CC(C)C)NC(=O)[C@H](C(C)C)NC(=O)[C@H](CSSC[C@H](NC1=O)C(=O)N[C@@H](CO)C(=O)NCC(=O)N[C@@H](Cc1ccccc1)C(=O)NCC(=O)N1CCC[C@H]1C(=O)N1CCC[C@H]1C(=O)N[C@@H](CCC(=O)O)C(=O)N[C@@H](CCC(N)=O)C(=O)N3)NC(=O)[C@H](C)NC(=O)CNC(=O)[C@H](CO)NC2=O [SOTI Var. 1] (H-EDKCSPSGAICSGFGPPEQCCSGACVLNRRARSWRCQ-OH; disulfide 4-21, 11-25, 20-36) | 28.9 ± 3.5 | > 1000 | – | total loss of trypsin inhibition | – | – |
| CC[C@H](C)[C@@H]1NC(=O)[C@H](C)NC(=O)CNC(=O)[C@H](CO)NC(=O)[C@@H]2CCCN2C(=O)[C@H](CO)NC(=O)[C@@H](NC(=O)[C@H](CCCCN)NC(=O)[C@H](CC(=O)O)NC(=O)[C@@H](N)CCC(=O)O)CSSC[C@@H]2NC(=O)[C@@H]3CSSC[C@@H](C(=O)N[C@@H](CCC(N)=O)C(=O)O)NC(=O)[C@H](C(C)C)NC(=O)[C@H](Cc4ccccc4)NC(=O)[C@H]([C@@H](C)CC)NC(=O)[C@H](CCCNC(=N)N)NC(=O)[C@H](CC(C)C)NC(=O)[C@H]([C@@H](C)CC)NC(=O)[C@@H]4CCCN4C(=O)[C@H](Cc4c[nH]cn4)NC(=O)[C@@H]4CCCN4C(=O)[C@H](C(C)C)NC(=O)[C@H](CSSC[C@H](NC1=O)C(=O)N[C@@H](CO)C(=O)NCC(=O)N[C@@H](Cc1ccccc1)C(=O)NCC(=O)N1CCC[C@H]1C(=O)N1CCC[C@H]1C(=O)N[C@@H](CCC(=O)O)C(=O)N[C@@H](CCC(N)=O)C(=O)N3)NC(=O)[C@H](C)NC(=O)CNC(=O)[C@H](CO)NC2=O [SOTI-III wt, Spinacia oleracea trypsin inhibitor III, reference compound] (H-EDKCSPSGAICSGFGPPEQCCSGACVPHPILRIFVCQ-OH; disulfide 4-21, 11-25, 20-36) | > 1000 | 60.6 ± 8.4 | – | – | no inhibition | did not display measurable inhibitory activity |
| CC[C@H](C)[C@@H]1NC(=O)[C@@H]2CSSC[C@H](NC(=O)[C@@H](NC(=O)CNC(=O)[C@@H](N)CO)C(C)C)C(=O)N3CCC[C@H]3C(=O)N[C@@H](CCCCN)C(=O)N[C@@H]([C@@H](C)CC)C(=O)N[C@@H](CC(C)C)C(=O)N[C@@H](CCCCN)C(=O)N[C@@H](CCCCN)C(=O)N[C@H]3CSSC[C@H](NC1=O)C(=O)N[C@@H](CCCNC(=N)N)C(=O)NCC(=O)N[C@@H](CC(N)=O)C(=O)NCC(=O)N[C@@H](Cc1ccc(O)cc1)C(=O)N[C@H](C(=O)NCC(N)=O)CSSC[C@H](NC(=O)[C@H](CC(=O)O)NC(=O)[C@H](CO)NC(=O)[C@H](CC(=O)O)NC(=O)[C@H](CCCNC(=N)N)NC(=O)[C@H](CCCNC(=N)N)NC3=O)C(=O)N1CCC[C@H]1C(=O)NCC(=O)N[C@@H](C)C(=O)N2 [oMCoTI-II, reference compound] (H-SGVCPKILKKCRRDSDCPGACICRGNGYCG-NH2; disulfide 4-21, 11-23, 17-29) | – | – | 276 ± 13 | – | – | – |
